Measurements: US20110237528A1, “COMPOSITIONS AND METHODS COMPRISING IMIDAZOLE AND TRIAZOLE DERIVATIVES” (INSTITUTE FOR ONEWORLD HEALTH, priority 2008, published 2011)

Biological target: T1, CFTR channel in human colonic T84 cells (Homo sapiens, UniProt P13569)
T1 construct: host or cells: T84 human colonic cells
Test: T84 assay (FLIPR membrane potential dye, forskolin/IBMX-stimulated)
Type: cell-based
Conditions: average of at least 2 runs unless marked n = 1
Description: For example, Human colonic T84 cells can be acquired from the European Collection of Cell Cultures (ECACC) and grown in standard culture conditions as described by the supplier. On the day before assay 25,000 T84 cells per well are plated into standard black walled, clear bottom 384-well assay plates in standard growth medium consisting of DMEM:F12 with 10% FBS and incubated overnight. […] T84 cells are incubated with the FLIPR Red membrane potential dye for 45 minutes in the presence and absence of test compound before being transferred to a commercially available fluorescence imaging plate reader (FLIPR384, Molecular Devices Corporation). Fluorescence levels are monitored continuously every second for 150 seconds; after an initial 10 second baseline, CFTR channel activity is stimulated through the addition of 10 μM forskolin in the presence of 100 μM of the phosphodiesterase inhibitor iso-butyl-methylxanthine (IBMX). […] CFTR channel opening causes chloride ion efflux and subsequent depolarization of the cells, which is measured by an increase in fluorescence. CFTR inhibitor compounds prevent cell depolarization and the associated increase in fluorescence. […]

T1 sequence (P13569 whole entry): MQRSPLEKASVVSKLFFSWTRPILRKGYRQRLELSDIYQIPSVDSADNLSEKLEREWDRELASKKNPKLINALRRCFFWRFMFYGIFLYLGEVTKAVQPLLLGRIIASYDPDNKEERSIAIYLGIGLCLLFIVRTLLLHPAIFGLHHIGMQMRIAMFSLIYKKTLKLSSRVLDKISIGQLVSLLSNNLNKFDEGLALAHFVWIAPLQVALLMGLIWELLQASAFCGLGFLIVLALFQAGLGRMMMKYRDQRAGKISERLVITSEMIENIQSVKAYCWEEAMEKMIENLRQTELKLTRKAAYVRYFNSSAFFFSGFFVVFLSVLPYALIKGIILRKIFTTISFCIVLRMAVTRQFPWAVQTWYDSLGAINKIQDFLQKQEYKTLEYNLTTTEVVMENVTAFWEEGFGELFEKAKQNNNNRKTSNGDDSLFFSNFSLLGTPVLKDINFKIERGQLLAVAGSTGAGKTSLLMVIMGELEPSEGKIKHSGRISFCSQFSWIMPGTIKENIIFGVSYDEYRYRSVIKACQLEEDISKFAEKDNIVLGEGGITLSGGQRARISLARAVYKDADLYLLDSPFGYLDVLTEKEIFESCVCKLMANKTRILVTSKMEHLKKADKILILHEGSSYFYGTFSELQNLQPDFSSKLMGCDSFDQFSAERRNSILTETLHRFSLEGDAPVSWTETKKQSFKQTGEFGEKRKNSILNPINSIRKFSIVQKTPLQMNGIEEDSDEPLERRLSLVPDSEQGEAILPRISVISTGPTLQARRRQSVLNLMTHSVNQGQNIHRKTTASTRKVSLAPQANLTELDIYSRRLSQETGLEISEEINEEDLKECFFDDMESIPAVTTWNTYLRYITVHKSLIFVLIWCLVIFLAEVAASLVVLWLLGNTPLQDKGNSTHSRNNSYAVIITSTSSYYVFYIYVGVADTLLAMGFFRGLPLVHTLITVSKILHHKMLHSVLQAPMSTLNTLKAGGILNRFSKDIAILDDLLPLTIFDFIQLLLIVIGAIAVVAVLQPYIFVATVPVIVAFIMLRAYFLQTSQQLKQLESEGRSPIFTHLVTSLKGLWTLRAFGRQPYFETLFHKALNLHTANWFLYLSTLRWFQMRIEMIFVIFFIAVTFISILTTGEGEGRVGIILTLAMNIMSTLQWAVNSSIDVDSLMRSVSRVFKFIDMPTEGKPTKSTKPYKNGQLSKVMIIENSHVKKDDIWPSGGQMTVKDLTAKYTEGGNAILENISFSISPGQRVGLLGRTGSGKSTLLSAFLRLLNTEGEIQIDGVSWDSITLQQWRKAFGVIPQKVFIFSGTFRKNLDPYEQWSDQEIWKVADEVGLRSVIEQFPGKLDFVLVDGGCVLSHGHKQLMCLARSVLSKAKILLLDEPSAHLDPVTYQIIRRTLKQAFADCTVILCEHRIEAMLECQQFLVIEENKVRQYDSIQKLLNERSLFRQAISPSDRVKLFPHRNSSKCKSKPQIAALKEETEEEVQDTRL

IC50: ≥ 50 µM
Compound: O=C(NCc1ccc(Oc2cc(C(F)(F)F)cc(C(F)(F)F)c2)cc1)c1ncn(-c2cc(Cl)c(O)c(Cl)c2)n1 [Compound 62, N-(4-(3,5-bis(trifluoromethyl)phenoxy)benzyl)-1-(3,5-dichloro-4-hydroxyphenyl)-1H-1,2,4-triazole-3-carboxamide]
